Results taken from patent publication US8236951B2, “Thioxanthine derivatives as myeloperoxidase inhibitors” (AstraZeneca AB, priority 2002, dated 2012).

Target: T1, human MPO (Homo sapiens, UniProt P05164)
T1 sequence (P05164 49-745): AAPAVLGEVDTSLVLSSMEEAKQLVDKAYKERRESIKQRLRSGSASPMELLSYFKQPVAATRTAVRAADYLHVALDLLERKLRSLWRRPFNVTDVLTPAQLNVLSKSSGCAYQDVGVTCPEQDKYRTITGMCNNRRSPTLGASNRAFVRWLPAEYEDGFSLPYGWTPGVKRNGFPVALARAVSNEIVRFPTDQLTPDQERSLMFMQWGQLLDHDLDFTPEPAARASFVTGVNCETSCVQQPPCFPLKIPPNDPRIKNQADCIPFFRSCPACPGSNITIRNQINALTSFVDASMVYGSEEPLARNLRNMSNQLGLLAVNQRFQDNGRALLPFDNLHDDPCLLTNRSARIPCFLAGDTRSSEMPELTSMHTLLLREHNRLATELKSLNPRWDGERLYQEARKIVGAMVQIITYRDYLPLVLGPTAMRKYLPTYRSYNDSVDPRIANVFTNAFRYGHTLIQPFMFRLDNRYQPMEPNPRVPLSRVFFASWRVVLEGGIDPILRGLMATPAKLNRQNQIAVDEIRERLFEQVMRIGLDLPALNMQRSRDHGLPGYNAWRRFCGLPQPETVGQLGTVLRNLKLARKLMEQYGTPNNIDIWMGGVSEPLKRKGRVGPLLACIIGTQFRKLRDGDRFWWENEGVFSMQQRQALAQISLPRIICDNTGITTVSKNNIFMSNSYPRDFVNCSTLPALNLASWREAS
Experiment: MPO inhibition screen (TMB oxidation, absorbance at about 650 nM)
Type: biochemical
Conditions: human MPO 2.5 nM, H2O2 100 μM, assay buffer pH 6.5, room temperature
Protocol: The pharmacological activity of compounds according to the invention was tested in the following screen:
Assay buffer: 20 mM sodium/potassium phosphate buffer pH 6.5 containing 10 mM taurine and 100 mM NaCl.
Then 50 μl of H202 (final concentration 100 μM), or assay buffer alone as a control, were added for 10 minutes at room temperature. […] IC50 values were then determined using standard procedures.

Compared with `CC(C)Cn1c(=S)[nH]c(=O)c2[nH]cnc21` [Example 6, 3-Isobutyl-2-thioxanthine], `COCCn1c(=S)[nH]c(=O)c2[nH]cnc21` [Example 15, 3-(2-Methoxy-ethyl)-2-thioxanthine] is 2-fold lower in IC50: 0.87 µM for the first, 0.44 µM for the second. The second is the more potent here.

Compared with `COc1ccc(Cn2c(=S)[nH]c(=O)c3[nH]cnc32)cc1` [Example 18, 3-(4-Methoxybenzyl)-2-thioxanthine], `O=c1[nH]c(=S)n(Cc2ccco2)c2nc[nH]c12` [Example 17, 3-(2-Furyl-methyl)-2-thioxanthine] is 15-fold higher in IC50: 0.49 µM for the first, 7.57 µM for the second.

Compared with `O=c1[nH]c(=S)n(CCCN2CCOCC2)c2nc[nH]c12` [Example 16, 3-(3-(1-Morpholinyl)-propyl)-2-thioxanthine], `O=c1[nH]c(=S)n(CC2CCCO2)c2nc[nH]c12` (racemic) [Example 14, 3-(2-Tetrahydrofuryl-methyl)-2-thioxanthine] is 5.8-fold lower in IC50: 2.94 µM for the first, 0.51 µM for the second.

Compared with `O=c1[nH]c(=S)n(CC2CCCCC2)c2nc[nH]c12` [Example 10, 3-Cyclohexylmethyl-2-thioxanthine], `O=c1[nH]c(=S)n(CCc2ccccc2)c2nc[nH]c12` [Example 20, 3-Phenethyl-2-thioxanthine] is 1.8-fold higher in IC50: 0.53 µM for the first, 0.96 µM for the second. The first is the more potent here.
